According to PubChem BioAssay AID1919013 (Molecular Pharmacology Branch, DTP, NCI, 2023):

Test system: LG0703-F498-PDC complex spheroid growth
Assay: Anticancer human tumor LG0703-F498-PDC patient-derived lung adenocarcinoma cell line growth inhibition [AhR]
Conditions: for IC50: curve of first compound; for viability, T/C: stronger effect = lower value
Method in brief: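 Spheroids combined tumor cells with HUVEC endothelial cells and human MSCs as stroma. AhR antagonists were paired with standard or investigational drugs, each dosed in half-log steps down from near clinical Cmax, or from 10 microM where Cmax was unknown.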

[1] = second compound 0.1 µM, first compound 0.0316 µM
[2] = second compound 0.1 µM, first compound 0.1 µM
[3] = second compound 0.1 µM, first compound 0.316 µM
[4] = second compound 0.1 µM, first compound 1 µM
[5] = second compound 0.1 µM, first compound 3.16 µM
[6] = second compound 0.1 µM, first compound 10 µM
[7] = second compound 0.316 µM, first compound 0.0316 µM
[8] = second compound 0.316 µM, first compound 0.1 µM
[9] = second compound 0.316 µM, first compound 0.316 µM
[10] = second compound 0.316 µM, first compound 1 µM
[11] = second compound 0.316 µM, first compound 3.16 µM
[12] = second compound 0.316 µM, first compound 10 µM
[13] = second compound 1 µM, first compound 0.0316 µM
[14] = second compound 1 µM, first compound 0.1 µM
[15] = second compound 1 µM, first compound 0.316 µM
[16] = second compound 1 µM, first compound 1 µM
[17] = second compound 1 µM, first compound 3.16 µM
[18] = second compound 1 µM, first compound 10 µM
[19] = second compound 3.16 µM, first compound 0.0316 µM
[20] = second compound 3.16 µM, first compound 0.1 µM
[21] = second compound 3.16 µM, first compound 0.316 µM
[22] = second compound 3.16 µM, first compound 1 µM
[23] = second compound 3.16 µM, first compound 3.16 µM
[24] = second compound 3.16 µM, first compound 10 µM
[25] = second compound 10 µM, first compound 0.0316 µM
[26] = second compound 10 µM, first compound 0.1 µM
[27] = second compound 10 µM, first compound 0.316 µM
[28] = second compound 10 µM, first compound 1 µM
[29] = second compound 10 µM, first compound 3.16 µM
[30] = second compound 10 µM, first compound 10 µM
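Also: luminescence taken as a proxy for viable cell amount.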
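For viability, T/C in this document: percent of DMSO vehicle control where 100% means growth equal to vehicle.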

SMILES	IC50 (second compound 0.1 µM) [nM]	IC50 (second compound 0.316 µM) [nM]	IC50 (second compound 1 µM) [nM]	IC50 (second compound 3.16 µM) [nM]	IC50 (second compound 10 µM) [nM]	viability, T/C [1] [%]	viability, T/C [2] [%]	viability, T/C [3] [%]	viability, T/C [4] [%]	viability, T/C [7] [%]	viability, T/C [8] [%]	viability, T/C [9] [%]	viability, T/C [10] [%]	viability, T/C [13] [%]	viability, T/C [14] [%]	viability, T/C [15] [%]	viability, T/C [16] [%]	viability, T/C [19] [%]	viability, T/C [20] [%]	viability, T/C [21] [%]	also measured
CC(C)c1c(-c2ccccc2)nc2c(C#N)c[nH]n2c1=O + Cc1cncc(-c2nc(NCCc3c[nH]c4ccccc34)c3ncn(C(C)C)c3n2)c1	> 10000	> 10000	> 10000	< 31.6	< 31.6	108	101	87.2	101	97.3	93.4	96.5	95.8	106	119	101	91.6	39.1	40	36.9	viability, T/C [5]: 89.1%; viability, T/C [6]: 81.6%; viability, T/C [11]: 103%; viability, T/C [12]: 79.5%; viability, T/C [17]: 91.9%; viability, T/C [18]: 89.6%; viability, T/C [22]: 31.7%; viability, T/C [23]: 29.9%; viability, T/C [24]: 33%; viability, T/C [25]: 1.38%; viability, T/C [26]: 1.01%; viability, T/C [27]: 1.64%; viability, T/C [28]: 2.22%; viability, T/C [29]: 0.57%; viability, T/C [30]: 1.89%
Nc1ncn(C2CC(O)C(CO)O2)c(=O)n1 (stereo not given) + Cc1cncc(-c2nc(NCCc3c[nH]c4ccccc34)c3ncn(C(C)C)c3n2)c1	> 1000	> 1000	> 1000	> 1000	< 3.16	94.8	84.4	79.9	86.4	88	86.8	81.9	79.9	98.7	89.3	89.3	87.2	58.5	64.3	55.1	viability, T/C (second compound 0.1 µM, first compound 0.00316 µM): 85.7%; viability, T/C (second compound 0.1 µM, first compound 0.01 µM): 98%; viability, T/C (second compound 0.316 µM, first compound 0.00316 µM): 109%; viability, T/C (second compound 0.316 µM, first compound 0.01 µM): 102%; viability, T/C (second compound 1 µM, first compound 0.00316 µM): 106%; viability, T/C (second compound 1 µM, first compound 0.01 µM): 116%; viability, T/C (second compound 3.16 µM, first compound 0.00316 µM): 56%; viability, T/C (second compound 3.16 µM, first compound 0.01 µM): 59.8%; viability, T/C [22]: 60%; viability, T/C (second compound 10 µM, first compound 0.00316 µM): 1.37%; viability, T/C (second compound 10 µM, first compound 0.01 µM): 1.38%; viability, T/C [25]: 1.23%; viability, T/C [26]: 1.12%; viability, T/C [27]: 1.02%; viability, T/C [28]: 1.63%
Nc1ccn(C2OC(CO)C(O)C2(F)F)c(=O)n1 (stereo not given) + Cc1cncc(-c2nc(NCCc3c[nH]c4ccccc34)c3ncn(C(C)C)c3n2)c1	< 31.6	< 31.6	< 31.6	< 31.6	< 31.6	40.6	36.2	31.3	28.9	39.7	37.6	35	28.1	33.5	40	32.2	28.8	24.4	26.7	29.4	viability, T/C [5]: 28.2%; viability, T/C [6]: 18.8%; viability, T/C [11]: 26.4%; viability, T/C [12]: 17.9%; viability, T/C [17]: 24.1%; viability, T/C [18]: 19.9%; viability, T/C [22]: 19.5%; viability, T/C [23]: 18.1%; viability, T/C [24]: 17.9%; viability, T/C [25]: 0.88%; viability, T/C [26]: 1.65%; viability, T/C [27]: 1.55%; viability, T/C [28]: 1.08%; viability, T/C [29]: 1.14%; viability, T/C [30]: 1.93%
NS(=O)(=O)OCC1CC(n2ccc3c(NC4CCc5ccccc54)ncnc32)CC1O (stereo not given) + Cc1ccccc1N=Nc1ccc(NC(=O)c2ccnn2C)c(C)c1	7520	6760	3060	1080	1310	100	94.1	97.9	90.8	102	99.8	103	81.7	96	102	99	74.4	93.2	99.6	67	viability, T/C [5]: 64.4%; viability, T/C [6]: 45.2%; viability, T/C [11]: 68.5%; viability, T/C [12]: 41%; viability, T/C [17]: 51.5%; viability, T/C [18]: 38.4%; viability, T/C [22]: 55.6%; viability, T/C [23]: 42.1%; viability, T/C [24]: 39.6%; viability, T/C [25]: 100%; viability, T/C [26]: 82.7%; viability, T/C [27]: 63.7%; viability, T/C [28]: 54.5%; viability, T/C [29]: 41.4%; viability, T/C [30]: 32%
